In patent US8912124B2, “Use of derivatives of (1-cyanocyclopropyl)phenylphosphinic acid, esters thereof and/or salts thereof for enhancing tolerance in plants to abiotic stress” (Bayer Cropscience AG, priority 2010, dated 2014):

What was measured:
Type in all cases: in vivo
BRSNS=Brassica napus = assay: Drought stress test on crop plants, spray application, efficacy (EF) on Brassica napus; details: percentage reduction in intensity of damage, mean of three results
Description: (§1) Seeds of monocotyledonous and dicotyledonous crop plants were placed in sandy loam in wood-fiber pots, covered with soil and cultivated in a greenhouse under good growth conditions. The test plants were treated at the early leaf stage (BBCH10-BBCH13). To ensure uniform water supply before commencement of stress, the potted plants were supplied with the maximum amount of water immediately beforehand by dam irrigation and, after application, transferred in plastic inserts in order to prevent subsequent, excessively rapid drying. The inventive compounds, formulated in the form of wettable powders (WP), wettable granules (WG), suspension concentrates (SC) or emulsion concentrates (EC), were sprayed onto the green parts of the plants as an aqueous suspension at an equivalent water application rate of 600 I/ha with addition of 0.2% wetting agent (agrotin). Substance application was followed immediately by stress treatment of the plants (cold or drought stress). For cold stress treatment, the plants are kept under the following controlled conditions: • “day”: 12 hours with illumination at 8° C. • “night”: 12 hours without illumination at 1° C.
(§2) Drought stress is induced by gradual drying out under the following conditions: • “day”: 14 hours with illumination at 26° C. • “night”: 10 hours without illumination at 18° C.
The duration of the respective stress phases was guided mainly by the state of the untreated, stressed control plants and thus varied from crop to crop. It was ended (by re-irrigating or transfer to a greenhouse with good growth conditions) as soon as irreversible damage was observed on the untreated, stressed control plants. In the case of dicotyledonous crops, for example oilseed rape and soya, the duration of the drought stress phase varied between 3 and 5 days, in the case of monocotyledonous crops, for example wheat, barley or corn, between 6 and 10 days. The duration of the cold stress phase varied between 12 and 14 days.
The end of the stress phase was followed by an approx. 5-7-day recovery phase, during which the plants were once again kept under good growth conditions in a greenhouse. In order to rule out any influence of the effects observed by any fungicidal action of the test compounds, it was additionally ensured that the tests proceed without fungal infection and without infection pressure.
After the recovery phase had ended, the intensities of damage were rated in visual comparison to untreated, unstressed controls of the same age (in the case of drought stress) or the same growth stage (in the case of cold stress). The intensity of damage was first assessed as a percentage (100%=plants have died, 0%=like control plants). These values were then used to calculate the efficacy of the test compounds (=percentage reduction in the intensity of damage as a result of substance application) by the following formula: […]
DVus: damage value of the untreated, stressed control
DVts: damage value of the plants treated with test compound
Tables A.1, A.2 and A.3 show the efficacies of selected inventive compounds of the formula (I) and of the formula (II) on different crop plants (BRSNS=Brassica napus (A.1;) TRZAS=Triticum aestivum (A.2); ZEAMX=Zea mays (A.3) under drought stress.
The values stated each represent mean values from three results of the same test.

ZEAMX=Zea mays = assay: Drought stress test on crop plants, spray application, efficacy (EF) on Zea mays; details: percentage reduction in intensity of damage, mean of three results
Description: as §1, §2
The duration of the respective stress phases was guided mainly by the state of the untreated, stressed control plants and thus varied from crop to crop. It was ended (by re-irrigating or transfer to a greenhouse with good growth conditions) as soon as irreversible damage was observed on the untreated, stressed control plants. […]
(§3) After the recovery phase had ended, the intensities of damage were rated in visual comparison to untreated, unstressed controls of the same age (in the case of drought stress) or the same growth stage (in the case of cold stress). The intensity of damage was first assessed as a percentage (100%=plants have died, 0%=like control plants). […]

TRZAS=Triticum aestivum = assay: Drought stress test on crop plants, spray application, efficacy (EF) on Triticum aestivum; details: dosage 25 g/ha, percentage reduction in intensity of damage, mean of three results
Description: Seeds of monocotyledonous and dicotyledonous crop plants were placed in sandy loam in wood-fiber pots, covered with soil and cultivated in a greenhouse under good growth conditions. The test plants were treated at the early leaf stage (BBCH10-BBCH13). To ensure uniform water supply before commencement of stress, the potted plants were supplied with the maximum amount of water immediately beforehand by dam irrigation and, after application, transferred in plastic inserts in order to prevent subsequent, excessively rapid drying. The inventive compounds, formulated in the form of wettable powders (WP), wettable granules (WG), suspension concentrates (SC) or emulsion concentrates (EC), were sprayed onto the green parts of the plants as an aqueous suspension at an equivalent water application rate of 600 I/ha with addition of 0.2% wetting agent (agrotin). Substance application was followed immediately by stress treatment of the plants (cold or drought stress). […]
as §3

CCCOP(=O)(c1ccccc1F)C1(C#N)CC1 (stereo not shown) [Compound 2-158]
EF (BRSNS) (BRSNS=Brassica napus; dosage 25 g/ha): >5% | EF (ZEAMX) (ZEAMX=Zea mays; dosage 250 g/ha): >5%

CCCOP(=O)(c1ccccc1)C1(C#N)CC1 (stereo not shown) [Compound 2-130]
EF (BRSNS) (BRSNS=Brassica napus; dosage 25 g/ha): >5% | EF (ZEAMX) (ZEAMX=Zea mays; dosage 25 g/ha): >5%

N#CC1(P(=O)(OC2CCCCC2)c2ccccc2)CC1 (stereo not shown) [Compound 2-142]
EF (BRSNS) (BRSNS=Brassica napus; dosage 25 g/ha): >5%

CCOP(=O)(c1cccc(C)c1)C1(C#N)CC1 (stereo not shown) [Compound 2-16]
EF (BRSNS) (BRSNS=Brassica napus; dosage 250 g/ha): >5%

CCOP(=O)(c1cc(Cl)cc(Cl)c1)C1(C#N)CC1 (stereo not shown) [Compound 2-111]
EF (BRSNS) (BRSNS=Brassica napus; dosage 25 g/ha): >5%

CCOP(=O)(c1cccc(C(=O)O)c1)C1(C#N)CC1 (stereo not shown) [Compound 2-34]
EF (BRSNS) (BRSNS=Brassica napus; dosage 25 g/ha): >5%

CC(C)COP(=O)(c1ccccc1)C1(C#N)CC1 (stereo not shown) [Compound 2-135]
EF (BRSNS) (BRSNS=Brassica napus; dosage 25 g/ha): >5% | EF (TRZAS) (TRZAS=Triticum aestivum): >5%

N#CC1(P(=O)(OCc2ccccc2)c2ccccc2)CC1 (stereo not shown) [Compound 2-155]
EF (BRSNS) (BRSNS=Brassica napus; dosage 25 g/ha): >5% | EF (ZEAMX) (ZEAMX=Zea mays; dosage 25 g/ha): >5%

CCOC(=O)c1cccc(P(=O)(OCC)C2(C#N)CC2)c1 (stereo not shown) [Compound 2-37]
EF (BRSNS) (BRSNS=Brassica napus; dosage 25 g/ha): >5%

CCOP(=O)(c1ccccc1)C1(C#N)CC1 (stereo not shown) [Compound 2-2, ethyl (1-cyanocyclopropyl)phenylphosphinate]
EF (BRSNS) (BRSNS=Brassica napus; dosage 25 g/ha): >5% | EF (TRZAS) (TRZAS=Triticum aestivum): >5%

CCOP(=O)(c1ccc(C)cc1)C1(C#N)CC1 (stereo not shown) [Compound 2-17]
EF (BRSNS) (BRSNS=Brassica napus; dosage 250 g/ha): >5%

CCOP(=O)(c1ccccc1OC)C1(C#N)CC1 (stereo not shown) [Compound 2-18]
EF (BRSNS) (BRSNS=Brassica napus; dosage 25 g/ha): >5%

CCCOP(=O)(c1ccccc1Cl)C1(C#N)CC1 (stereo not shown) [Compound 2-159]
EF (BRSNS) (BRSNS=Brassica napus; dosage 25 g/ha): >5%

CCOP(=O)(c1cccc(OC)c1)C1(C#N)CC1 (stereo not shown) [Compound 2-19]
EF (BRSNS) (BRSNS=Brassica napus; dosage 25 g/ha): >5%
